Results taken from patent publication US11591341B2 (ALIGOS THERAPEUTICS, INC., priority 2019, dated 2023).

Test system: HBV
Experiment: HBV-DNA Antiviral Assay Using HepG2.117 Cells (intracellular HBV DNA by qPCR)
Format: cell-based, hepatitis B virus (genotype D)
Conditions: Hepatitis B virus, HepG2.117
Outline: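 Endpoint: qPCR copy number of intracellular HBV DNA after 3-day compound exposure, with inhibition set relative to the 2% DMSO control. The cells were doxycycline-free HepG2.117 carrying a Tet-off genotype D genome, dosed at nine 4-fold dilutions. A duplicate plate gave ATP-based viability (CC50).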

SMILES | EC50 [nM]
CC(C)(Oc1ccc(CNC(=O)c2c3n(c(=O)n2-c2ccc(OC4CC4)cc2)CCN(C(=O)c2ccc(Br)c(Cl)c2)C3)c(F)c1)C(N)=O [Example 365, N-[[4-(2-amino-1,1-dimethyl-2-oxo-ethoxy)-2-fluoro-phenyl]methyl]-7-(4-bromo-3-chloro-benzoyl)-2-[4-(cyclopropoxy)phenyl]-3-oxo-6,8-dihydro-5H-imidazo[1,5-a]pyrazine-1-carboxamide] | < 100
O=C(NCc1ccccc1-c1ncco1)c1c2n(c(=O)n1-c1ccc(OC3CC3)cc1)CCN(C(=O)c1ccc(Br)c(Cl)c1)C2 [Example 366, 7-(4-bromo-3-chloro-benzoyl)-2-[4-(cyclopropoxy)phenyl]-N-[(2-oxazol-2-ylphenyl)methyl]-3-oxo-6,8-dihydro-5H-imidazo[1,5-a]pyrazine-1-carboxamide] | < 100
O=C(NCc1cccc2[nH]cnc12)c1c2n(c(=O)n1-c1ccc(OC3CC3)cc1)CCN(C(=O)c1ccc(Br)c(Cl)c1)C2 [Example 367, N-(1H-benzoimidazol-4-ylmethyl)-7-(4-bromo-3-chloro-benzoyl)-2-[4-(cyclopropoxy)phenyl]-3-oxo-6,8-dihydro-5H-imidazo[1,5-a]pyrazine-1-carboxamide] | 100 to 500
O=C(NCc1cccc2[nH]cnc12)c1c2n(c(=O)n1-c1ccc(OCC(F)(F)F)cc1)CCN(C(=O)c1ccc(Br)c(Cl)c1)C2 [Example 368, N-(1H-benzimidazol-4-ylmethyl)-7-(4-bromo-3-chloro-benzoyl)-3-oxo-2-[4-(2,2,2-trifluoroethoxy)phenyl]-6,8-dihydro-5H-imidazo[1,5-a]pyrazine-1-carboxamide] | 500 to 5000
O=C(NCc1ccccc1-c1ccccn1)c1c2n(c(=O)n1-c1ccc(OC3CC3)cc1)CCN(C(=O)c1ccc(Br)c(Cl)c1)C2 [Example 369, 7-(4-bromo-3-chloro-benozyl)-2-[4-(cyclopropoxy)phenyl]-3-oxo-N-[[2-(2-pyridyl)phenyl]methyl]-6,8-dihydro-5H-imidazo[1,5-a]pyrazine-1-carboxamide] | < 100
O=C(NCc1ccccc1-c1ccccn1)c1c2n(c(=O)n1-c1ccc(OCC(F)(F)F)cc1)CCN(C(=O)c1ccc(Br)c(Cl)c1)C2 [Example 370, 7-(4-bromo-3-chloro-benzoyl)-3-oxo-N-[[2-(2-pyridyl)phenyl]methyl]-2-[4-(2,2,2-trifluoroethoxy)phenyl]-6,8-dihydro-5H-imidazo[1,5-a]pyrazine-1-carboxamide] | < 100
O=C(NCc1ccccc1-c1ncco1)c1c2n(c(=O)n1-c1ccc(OCC(F)(F)F)cc1)CCN(C(=O)c1ccc(Br)c(Cl)c1)C2 [Example 375, 7-(4-bromo-3-chloro-benzoyl)-N-[(2-oxazol-2-ylphenyl)methyl]-3-oxo-2-[4-(2,2,2-trifluoroethoxy)phenyl]-6,8-dihydro-5H-imidazo[1,5-a]pyrazine-1-carboxamide] | 100 to 500
O=C(NCc1ccccc1-c1ncccn1)c1c2n(c(=O)n1-c1ccc(OC3CC3)cc1)CCN(C(=O)c1ccc(Br)c(Cl)c1)C2 [Example 376, 7-(4-bromo-3-chloro-benzoyl)-2-[4-(cyclopropoxy)phenyl]-3-oxo-N-[(2-pyrimidin-2-ylphenyl)methyl]-6,8-dihydro-5H-imidazo[1,5-a]pyrazine-1-carboxamide] | < 100
O=C(NCc1ccccc1-c1ncccn1)c1c2n(c(=O)n1-c1ccc(OCC(F)(F)F)cc1)CCN(C(=O)c1ccc(Br)c(Cl)c1)C2 [Example 377, 7-(4-bromo-3-chloro-benzoyl)-3-oxo-N-[(2-pyrimidin-2-ylphenyl)methyl]-2-[4-(2,2,2-trifluoroethoxy)phenyl]-6,8-dihydro-5H-imidazo[1,5-a]pyrazine-1-carboxamide] | < 100
O=C(NCc1ccccc1-c1cocn1)c1c2n(c(=O)n1-c1ccc(OCC(F)(F)F)cc1)CCN(C(=O)c1ccc(Br)c(Cl)c1)C2 [Example 386, 7-(4-bromo-3-chloro-benzoyl)-N-[(2-oxazol-4-ylphenyl)methyl]-3-oxo-2-[4-(2,2,2-trifluoroethoxy)phenyl]-6,8-dihydro-5H-imidazo[1,5-a]pyrazine-1-carboxamide] | 100 to 500
O=C(NCc1ccccc1-c1cccnn1)c1c2n(c(=O)n1-c1ccc(OC3CC3)cc1)CCN(C(=O)c1ccc(Br)c(Cl)c1)C2 [Example 387, 7-(4-bromo-3-chloro-benozyl)-2-[4-(cyclopropoxy)phenyl]-3-oxo-N-[(2-pyridazin-3-ylphenyl)methyl]-6,8-dihydro-5H-imidazo[1,5-a]pyrazine-1-carboxamide] | < 100
O=C(NCc1ccccc1-c1cccnn1)c1c2n(c(=O)n1-c1ccc(OCC(F)(F)F)cc1)CCN(C(=O)c1ccc(Br)c(Cl)c1)C2 [Example 388, 7-(4-bromo-3-chloro-benzoyl)-3-oxo-N-[(2-pyridazin-3-ylphenyl)methyl]-2-[4-(2,2,2-trifluoroethoxy)phenyl]-6,8-dihydro-5H-imidazo[1,5-a]pyrazine-1-carboxamide] | < 100
O=C(NCc1ccccc1)c1c2n(c(=O)n1-c1ccc3nonc3c1)CCN(C(=O)c1ccc(Br)c(Cl)c1)C2 [Example 389, 2-(2,1,3-benzoxadiazol-5-yl)-N-benzyl-7-(4-bromo-3-chloro-benzoyl)-3-oxo-6,8-dihydro-5H-imidazo[1,5-a]pyrazine-1-carboxamide] | 500 to 5000
O=C(NCc1ccccc1)c1c2n(c(=O)n1-c1ccc(N3CCC3)cc1)CCN(C(=O)c1ccc(Br)c(Cl)c1)C2 [Example 390, 2-[4-(azetidin-1-yl)phenyl]-N-benzyl-7-(4-bromo-3-chloro-benzoyl)-3-oxo-6,8-dihydro-5H-imidazo[1,5-a]pyrazine-1-carboxamide] | 100 to 500
O=C(NCc1ccccc1)c1c2n(c(=O)n1-c1ccc(N3CC(F)(F)C3)cc1)CCN(C(=O)c1ccc(Br)c(Cl)c1)C2 [Example 391, N-benzyl-7-(4-bromo-3-chloro-benzoyl)-2-[4-(3,3-difluoroazetidin-1-yl)phenyl]-3-oxo-6,8-dihydro-5H-imidazo[1,5-a]pyrazine-1-carboxamide] | 100 to 500
O=C(NCc1ccccc1)c1c2n(c(=O)n1-c1ccc(N3CCC(F)(F)C3)cc1)CCN(C(=O)c1ccc(Br)c(Cl)c1)C2 [Example 392, N-benzyl-7-(4-bromo-3-chloro-benzoyl)-2-[4-(3,3-difluoropyrrolidin-1-yl)phenyl]-3-oxo-6,8-dihydro-5H-imidazo[1,5-a]pyrazine-1-carboxamide] | 100 to 500
CC(C)(Oc1ccc(-n2c(C(=O)NCc3ccccc3)c3n(c2=O)CCN(C(=O)c2ccc(Br)c(Cl)c2)C3)cc1)C(F)(F)F [Example 393, N-benzyl-7-(4-bromo-3-chloro-benzoyl)-3-oxo-2-[4-(2,2,2-trifluoro-1,1-dimethyl-ethoxy)phenyl]-6,8-dihydro-5H-imidazo[1,5-a]pyrazine-1-carboxamide] | 500 to 5000
O=C(NCc1ccccc1)c1c2n(c(=O)n1-c1ccc(-n3cncn3)cc1)CCN(C(=O)c1ccc(Br)c(Cl)c1)C2 [Example 395, N-benzyl-7-(4-bromo-3-chloro-benzoyl)-3-oxo-2-[4-(1,2,4-triazol-1-yl)phenyl]-6,8-dihydro-5H-imidazo[1,5-a]pyrazine-1-carboxamide] | 500 to 5000
CC(C)(C)Oc1ccc(-n2c(C(=O)NCc3ccccc3)c3n(c2=O)CCN(C(=O)c2ccc(Br)c(Cl)c2)C3)cc1 [Example 396, N-benzyl-7-(4-bromo-3-chloro-benzoyl)-2-(4-tert-butoxyphenyl)-3-oxo-6,8-dihydro-5H-imidazo[1,5-a]pyrazine-1-carboxamide] | 100 to 500
CC1(C)C(=O)Nc2ccc(-n3c(C(=O)NCc4ccccc4)c4n(c3=O)CCN(C(=O)c3ccc(Br)c(Cl)c3)C4)cc21 [Example 397, N-benzyl-7-(4-bromo-3-chloro-benozyl)-2-(3,3-dimethyl-2-oxo-indolin-5-yl)-3-oxo-6,8-dihydro-5H-imidazo[1,5-a]pyrazine-1-carboxamide] | 500 to 5000
O=C(NCc1ccccc1-c1cocn1)c1c2n(c(=O)n1-c1ccc(OC3CC3)cc1)CCN(C(=O)c1ccc(Br)c(Cl)c1)C2 [Example 398, 7-(4-bromo-3-chloro-benzoyl)-2-[4-(cyclopropxy)phenyl]-N-[(2-oxazol-4-ylphenyl)methyl]-3-oxo-6,8-dihydro-5H-imidazo[1,5-a]pyrazine-1-carboxamide] | < 100
Cn1cnc2c(CNC(=O)c3c4n(c(=O)n3-c3ccc(OC5CC5)cc3)CCN(C(=O)c3ccc(Br)c(Cl)c3)C4)cccc21 [Example 399, 7-(4-bromo-3-chloro-benzoyl)-2-[4-(cyclopropoxy)phenyl]-N-[(1-methylbenzimidazol-4-yl)methyl]-3-oxo-6,8-dihydro-5H-imidazo[1,5-a]pyrazine-1-carboxamide] | 100 to 500
Cn1cnc2c(CNC(=O)c3c4n(c(=O)n3-c3ccc(OCC(F)(F)F)cc3)CCN(C(=O)c3ccc(Br)c(Cl)c3)C4)cccc21 [Example 400, 7-(4-bromo-3-chloro-benzoyl)-N-[(1-methylbenzimidazol-4-yl)methyl]-3-oxo-2-[4-(2,2,2-trifluoroethoxy)phenyl]-6,8-dihydro-5H-imidazo[1,5-a]pyrazine-1-carboxamide] | 100 to 500
O=C(NCc1ccccc1-c1cnccn1)c1c2n(c(=O)n1-c1ccc(OC3CC3)cc1)CCN(C(=O)c1ccc(Br)c(Cl)c1)C2 [Example 401, 7-(4-bromo-3-chloro-benzoyl)-2-[4-(cyclopropoxy)phenyl]-3-oxo-N-[(2-pyrazin-2-ylphenyl)methyl]-6,8-dihydro-5H-imidazo[1,5-a]pyrazine-1-carboxamide] | < 100
O=C(NCc1ccccc1-c1cnccn1)c1c2n(c(=O)n1-c1ccc(OCC(F)(F)F)cc1)CCN(C(=O)c1ccc(Br)c(Cl)c1)C2 [Example 402, 7-(4-bromo-3-chloro-benzoyl)-3-oxo-N-[(2-pyrazin-2-ylphenyl)methyl]-2-[4-(2,2,2-trifluoroethoxy)phenyl]-6,8-dihydro-5H-imidazo[1,5-a]pyrazine-1-carboxamide] | < 100
